{"source": "patent US9125866B1", "about": "“Antidepressant compounds” (KING SAUD UNIVERSITY, priority 2015, dated 2015)", "test_system": "mice subjected to the forced swim test", "test": "Forced swim test on mice (duration of immobility)", "type": "in vivo, Swiss white mice", "details": "for Duration of immobility in seconds during the last four minutes of the six minute period: 20 minutes before test, N=4; for Activity in reducing immobility time compared with control (in words): 40 mg/Kg; for Percentage decrease in immobility times for dosage of 40 mg/kg: 40 mg/kg i.p.; for Percentage decrease in immobility times for dosage of 40 mg/kg / Percentage decrease in immobility times for dosage of 80 mg/kg: versus control; for Percentage decrease in immobility times for dosage of 80 mg/kg: 80 mg/kg i.p.", "excerpt": "The antidepressant compounds can be used to treat depression. […] As exemplified in such technical articles as I Weiner et al., “A comparison of drug effects in latent inhibition and the forced swim test differentiates between the typical antipsychotic haloperidol, the atypical antipsychotics clozapine and olanzapine, and the antidepressants imipramine and paroxetine”, Behavioural Pharmacology (2003), Vol. 14, pp. 215-22, and D. A. Slattery et al., “Using the rat forced swim test to assess antidepressant-like activity in rodents”, Nature Protocols (2012), Vol. 7, pp. 1009-1014, the forced swim test is recognized in the pharmacological art as a standard test protocol for assessing antidepressant-like behavior induced by antidepressant compounds. The forced swimming test measures the duration of immobility of rodents exposed to the threat of drowning. Mice normally swim for 1-2 minutes and then turn helpless and become immobile. […] For example, the mouse may appear to float, i.e. almost immobile and with its head above water. The majority of known antidepressant drugs decrease the duration of immobility.\nTo test for the presence of anti-depressant activity of the test compounds 3, 4, 5 and 6, the forced swim test was conducted on mice. The forced swimming test was conducted generally in accordance with the procedures set forth in David, D. J. P. et al., Psychopharmacology (2003), 166, 373-382, with the exception of a slight modification in the dimensions of the vessel used as a swimming pool. The vessel was a glass cylinder having an internal diameter of 25 cm and included water having a depth of 15 cm and a temperature of about 22±2° C. Swiss white mice weighing 25 g each were divided into 17 groups (N=4). One group served as control and the others divided for each test compound.\nThe test compounds were dissolved in DMSO and administered in 4 dose levels of 10, 20, 40, 80 mg/kg, respectively, intraperitoneally (“i.p.”). The antidepressant compounds were administered to the mice 20 minutes before starting the swimming test. The control group was administered the vehicle only, in the same volume. Each mouse was allowed to stay in the swimming pool for 6 minutes. The duration of the period of immobility was measured at the beginning of the third minute of placing the mouse into the swimming pool and ended by the end of the sixth minute. In other words, the duration of immobility observed only during the last four minutes was recorded. For each test compound dose, the time of immobility was calculated and then averaged.", "key": {"[1]": {"details": "40 mg/kg i.p. in DMSO, * P<0.05 compared with control"}, "[2]": {"details": "80 mg/kg i.p. in DMSO, * P<0.05 compared with control"}}, "data": [{"smiles": "O=CC1CC2c3cccc(Cl)c3C1c1c(Cl)cccc12", "note": "(stereo not shown) [Compound 3, 4,5-dichloro-9,10-dihydro-9,10-ethanoanthracene-11-carbaldehyde]", "values": [{"measurement": "Duration of immobility in seconds during the last four minutes of the six minute period", "setting": "10 mg/kg i.p. in DMSO", "result": 240, "unit": "s"}, {"measurement": "Duration of immobility in seconds during the last four minutes of the six minute period", "setting": "20 mg/kg i.p. in DMSO", "result": 240, "unit": "s"}, {"measurement": "Activity in reducing immobility time compared with control (in words)", "setting": "p<0.05, N=4", "result": "significantly active in reducing immobility time"}, {"measurement": "Duration of immobility in seconds during the last four minutes of the six minute period", "setting": "[1]", "result": "160 ± 11* seconds"}, {"measurement": "Percentage decrease in immobility times for dosage of 40 mg/kg", "result": 28.9, "unit": "%"}, {"measurement": "Immobility time compared with the control (in words)", "setting": "80 mg/kg dosage, p<0.05, N=4", "result": "significant decrease in immobility time"}, {"measurement": "Duration of immobility in seconds during the last four minutes of the six minute period", "setting": "[2]", "result": "65 ± 4* seconds"}, {"measurement": "Percentage decrease in immobility times for dosage of 80 mg/kg", "result": 71.1, "unit": "%"}]}, {"smiles": "O=CC1CC2c3c(Cl)cccc3C1c1cccc(Cl)c12", "note": "(stereo not shown) [Compound 4, 1,8-dichloro-9,10-dihydro-9,10-ethanoanthracene-11-carbaldehyde]", "values": [{"measurement": "Duration of immobility in seconds during the last four minutes of the six minute period", "setting": "10 mg/kg i.p. in DMSO", "result": 240, "unit": "s"}, {"measurement": "Duration of immobility in seconds during the last four minutes of the six minute period", "setting": "20 mg/kg i.p. in DMSO", "result": 240, "unit": "s"}, {"measurement": "Duration of immobility in seconds during the last four minutes of the six minute period", "setting": "[1]", "result": 240, "unit": "s"}, {"measurement": "Duration of immobility in seconds during the last four minutes of the six minute period", "setting": "[2]", "result": 240, "unit": "s"}, {"measurement": "Activity in the forced swim test (in words)", "setting": "all doses tested (10, 20, 40, 80 mg/kg i.p.)", "result": "completely inactive"}]}, {"smiles": "CNCC1CC2c3cccc(Cl)c3C1c1c(Cl)cccc12", "note": "(stereo not shown) [Compound 5]", "values": [{"measurement": "Duration of immobility in seconds during the last four minutes of the six minute period", "setting": "10 mg/kg i.p. in DMSO", "result": 240, "unit": "s"}, {"measurement": "Duration of immobility in seconds during the last four minutes of the six minute period", "setting": "20 mg/kg i.p. in DMSO", "result": "200 ± 12.3", "unit": "s"}, {"measurement": "Activity in reducing immobility time compared with control (in words)", "setting": "p<0.05, N=4", "result": "significantly active in reducing immobility time"}, {"measurement": "Duration of immobility in seconds during the last four minutes of the six minute period", "setting": "[1]", "result": "140 ± 7.9* seconds"}, {"measurement": "Percentage decrease in immobility times for dosage of 40 mg/kg", "result": 37.8, "unit": "%"}, {"measurement": "Activity compared with compound 3 (in words)", "setting": "80 mg/kg dosage, p<0.05, N=4", "result": "significantly more active than compound 3"}, {"measurement": "Immobility time compared with the control (in words)", "setting": "80 mg/kg dosage, p<0.05, N=4", "result": "significant decrease in immobility time"}, {"measurement": "Duration of immobility in seconds during the last four minutes of the six minute period", "setting": "[2]", "result": "36 ± 4.9* seconds"}, {"measurement": "Percentage decrease in immobility times for dosage of 80 mg/kg", "result": 84.0, "unit": "%"}]}]}
